In US9107879B1, “Methods of increasing the cytotoxicity of chemotherapeutic agents with multisubstrate inhibitors of histone, protein-lys, polyamine acetylation, and polyamine metabolism” (Vanderbilt University, priority 2010, dated 2015):

Key:
[1] = system: H358 lung cancer cells; experiment: [3H]-thymidine incorporation DNA synthesis assay; format: cell-based; settings: for inhibition of DNA synthesis, single agent (FIG. 25): 1, 10 or 50 μM for 12 hours
Method: (A) Structures of 1a, and the acetylated side chain of a lysine residue within the polypeptide chain of a protein targeted by the acetylating enzyme (R1 and R2 are the main chain elements on both sides of the lysyl residue). (B) [^3H]-thymidine incorporation into DNA of H358 cells pulsed for 6 hrs at three different time points after the addition of increasing concentrations of 1a, i.e., at 6-12 hrs (12 hr curve), at 18-24 hours (24 hr curve), or at 42-48 hrs (48 hr curve). Incorporation is represented as a percentage relative to control (untreated) cells. (C) Cell cycle analysis of propidium iodide-stained cells harvested at various times after addition of 50 μM 1a. % of cells in G1, S, and G2 represents the average of two independent profiles. (D) Western analysis of histone H3 lysine 9 acetylation, histone H3 lysine 56 acetylation, histone H3 lysine 9 methylation, and total histone H3, before “c” or at the indicated times after addition of 50 μM 1a. Each lane represents 60 μg cellular protein.
(§1) Control cells were left untreated. […] Control cells were left untreated.
Cells were either labeled immediately before treatment (starting DNA synthesis rate), or subjected to the indicated treatments and then pulsed on successive days until day 4. DNA synthesis is represented as the percent of starting DNA synthesis rate. Viability was determined for each treatment condition 24 hours post-start of treatment by the trypan blue exclusion assay, with percentages of viable cells indicated to the right of the graph.
H358 cells (2,000/well) in 96-well plates were treated with 1, 10 or 50 μM of spd-1a, spd-2a, spd-3a, spm3, or spm2 for 12 hours. Triplicate wells of cells were pulsed 6 hours with 0.5 μCi [^3H]-thymidine (NEN, Boston Mass.) post-start of drug treatment, and harvested onto filter paper using a Brandel Harvester and subjected to scintillation counting. Untreated cells were pulsed 0-6 hrs to establish the initial rate of incorporation.
Cells were plated in 96-well plates (2000 cells per well to insure conditions for exponential growth for untreated cells over the time course of the experiment) and exposed to the following treatments: 1a (50 μM); camptothecin (Sigma, St Louis, Mo. 5 nM, 18 hours); cisplatin (Platinol, obtained through local pharmacies, 2 μM, 1 hour 15 minutes), 5-fluorouracil (5FU, Adrucil™, obtained through local pharmacies, 2 μM, 1 hour 15 minutes), Taxotere (provided by the late Dr. Pierre Potier, 5 nM, 18 hours). UVC treatment (40 J/m^2) using a Stratalinker™, Stratagene, La Jolla, Calif.) was carried using medium lacking phenol red. At 0-6 hr, 18-24 hr (day 1), 42-48 hr […], 66-72 hr (day 3), and 90-96 hr (day 4) post-start of treatment, triplicate wells were incubated with 0.5 μCi [^3H]-thymidine (NEN, Boston Mass.), harvested onto filter paper, and subjected to scintillation counting. Trypan blue exclusion assays for cell membrane integrity were carried out as known in the art.
The present inventors used [^3H]-thymidine incorporation assays to examine DNA synthesis in H358 lung cancer cells in the presence of varying concentrations of 1a. Cells were pulsed for 6 hours with [^3H]-thymidine at three different time points after the addition of 1a (i.e., at 6-12 hours, at 18-24 hours, and at 42-48 hours). The incorporation of [^3H]-thymidine into DNA decreased with increasing concentrations of 1a at all three time points, with the maximal effect occurring with the 6-12 hour pulse (FIG. 2B).
We then used [^3H]-thymidine incorporation assays to examine DNA synthesis in H358 lung cancer cells in the presence of 1a alone, or together with an 18 hour exposure to the DNA damaging drug, camptothecin (CPT), a plant alkaloid from which an important class of topoisomerase I-targeted chemotherapeutic agents (Hycamtin [topotecan] and Camptosar [irinotecan]) has been derived (Garcia-Carbonero, et al, 2002, Clin Cancer Res 8: 641-61). […]

[2] = system: H358 lung cancer cells; experiment: 96-well MTS cell viability assay; format: cell-based
Method: as §1
Cells were given fresh inhibitor on the first, second, and third days of treatment and viability was measured on the 4th day (i.e. 3 days post start of treatment).
(A) Structure of compound 2a. […] Averages of duplicate samples with standard deviations are shown.
(A) Structure of Spd-3a. (B) Western analysis of histone H3K9-acetylation and total histone H3, measured in control, untreated H358 lung cancer cells “C’ or in H358 cells incubated 12 hours in the presence of 50 μM Spd-2a or Spd-3a. Each lane represents 60 μg cellular protein. (C) [3H]-thymidine incorporation (counts per minute) into DNA of H358 cells during a 6 hour pulse beginning at 42 hours post-start of treatment. Treatments were as follows (bars 1-6 left to right): (1) control: no treatment; (2) CPT alone: 5 nM 18 hours; (3) 3a alone: 50 μM; (4-6) 3a+CPT: CPT (5 nm, 18 hours)+3a at indicated dose. After 18 hours, CPT was removed and medium was replaced with fresh medium containing Spd-3a at the indicated dose. Each bar represents the average of triplicates. (D) 3-day 96-well viability assay of H358 cells grown in the presence of increasing amounts of Spd-2a or Spd-3a, with or without CPT (5 nM 18 hours). […] Each data point represents the average of three wells.
Cells were plated in 96-well plates at 2000 cells per well and treated with the indicated doses of spd-3a. Cell viability was measured by the MTS assay 3 days later.
DLD-1 cells or H358 cells were plated in 96-well plates at 2000 cells per well and treated with the indicated doses of (A) spm-3 or (B) spm-2. (C) Cell viability was measured by the MTS assay 3 days later. Similar experiment using GT41 fibroblasts with spm2 or spm 3. Each assay point represents an average of duplicates.
Control cells received neither 1a nor camptothecin.
After overnight attachment, triplicate wells were treated with increasing concentrations of inhibitor 1a or 1b. Control wells were left untreated. One day later, and again 2 days later, the medium in the wells was removed and replaced with fresh medium containing 1a or 1b.

Q: For CC(C)(COP(=O)(O)OP(=O)(O)OC[C@H]1O[C@@H](n2cnc3c(N)ncnc32)[C@H](O)[C@@H]1OP(=O)(O)O)[C@@H](O)C(=O)NCCC(=O)NCCSCC(=O)NCCCNCCCCN [1a, spermidine[N1]-CoA], which “sensitization to cisplatin (CDDP), UVC irradiation and 5-FU in DNA synthesis assay” value ([1]; 50 μM 1a + cisplatin 2 μM, UVC 40 J/m2 or 5FU 2 μM) is on record?
A: sensitized

Q: And the activity at 50 µM ([1]; Homo sapiens, NCI-H358, 50 μM 1a + 5 nM camptothecin (18 h), 48 hours post-initiation, read-out: [3H]-thymidine incorporation, % of control incorporation)?
A: < 20%

Q: What about the IC50 ([1]; Homo sapiens, NCI-H358, 6-12 hour [3H]-thymidine pulse, read-out: IC50 for inhibition of DNA synthesis) of the same molecule?
A: 50 to 100 µM

Q: What about the “2-day cell viability, % of untreated cell viability” value ([2]; 5 nM camptothecin + increasing concentrations of 1a) of the same molecule?
A: less than 10%

Q: CC[C@@]1(O)C(=O)OCc2c1cc1n(c2=O)Cc2cc3ccccc3nc2-1 [camptothecin] was tested. Which “effect on [3H]-thymidine incorporation, single agent” value ([1]; 1a 50 μM, camptothecin 5 nM (18 or 24 h)) did it give?
A: no detectable effect

Q: And the “2-day cumulative cell viability relative to untreated, single agent” value ([2]; 1a increasing concentrations, camptothecin 5 nM 18 hour)?
A: no effect

Q: What does the source list for CC(=O)NCCSCC(=O)NCCCNCCCCN [3a]?
A: inhibition of DNA synthesis, single agent (FIG. 25) [1]: inhibit DNA synthesis; suppression of DNA synthesis in combination with camptothecin ([1]; 3a + CPT 5 nM 18 hours, pulse from 42 hours): effective; suppression of 3-day cell viability in combination with camptothecin ([2]; 3a + CPT 5 nM 18 hours): effective

Q: CC(=O)NCCSCC(=O)NCCCNCCCCNCCCN [spm-3] was tested. Which “inhibition of DNA synthesis, single agent (FIG. 25)” value [1] did it give?
A: inhibit DNA synthesis

Q: What about the “3-day cell viability, single agent” value ([2]; single agent) of the same molecule?
A: effective as single agents
